# “Also recorded” adds a separate entry of the source. Structures can show the parent of a compound that is named as a salt.
# Columns and labels:
# [1] = tested on: full length endogenous Huntingtin in HD patient lymphoblastoid cell line; experiment: full length endogenous Huntingtin in HD patient lymphoblastoid cell line; format: cell-based
# From the text: (§1) Psi114 and Cl-Psi114 reduce polyQ accumulation both in their soluble and insoluble form. In developing therapeutic approaches, targeting specifically the pathogenic fragment of Huntingtin is a fundamental concern because Huntingtin is an essential gene. The inventors tested the effect of active compounds on endogenous full length Huntingtin in the same extracts as tested for the N-terminal fragment of Huntingtin. Psi114 and Cl-Psi114 have no effect on the levels of full length endogenous Huntingtin in 293T cells while these 2 compounds effectively reduce accumulation of the N-terminal pathogenic fragment of Huntingtin (FIG. 1b). Cl-Psi114 has also no effect on the level of full length endogenous Huntingtin in HD patient lymphoblastoid cell line.
# [2] = tested on: aggregated Htt48 in 293T cells; experiment: filter retardation assay of lysates of Htt48-transfected 293T cells; format: cell-based; details: lysates 48 h post-transfection
# [3] = tested on: full length endogenous Huntingtin in 293T cells; experiment: immunoblot of full length endogenous Huntingtin in 293T cells; format: cell-based; details: same extracts as for the N-terminal fragment
# Procedure: b: 293T cells were transfected with Htt48 and treated with the indicated compounds in DMSO at the indicated doses or DMSO alone 4 h posttransfection. SDS lysates collected 48 h post-transfection were analyzed on a 10% SDS-PAGE followed by immunoblot with Htt 2B4 and vimentin antibodies. To reveal full length Huntingtin, the same extracts were analyzed on a 4.5% SDS-PAGE followed by immunoblot PAGE followed by immunoblot with an oligoclonal mixture of Huntingtin antibodies: 2B4, 4C8 and 2E8.
# as §1
# [4] = tested on: truncated huntingtin with 73Q repeats (T73) in NG108-15 cells; experiment: NG108-15 neuronal-like cell model of HD, immunoblot of T73; format: cell-based; details: drugs added 12 h post-induction, extracts 3 days after treatment
# Procedure: (§2) NG108-15 cells were induced for differentiation and T73 expression as described in Lunkes et al, 2002 and treated with the indicated compounds in DMSO at the indicated doses or DMSO alone 12 h post-induction. SDS lysates collected […] were analyzed by SDS-PAGE followed by immunoblot with Htt 2B4 and vimentin antibodies. Images were acquired and quantified with the Chemi-Smart system (Vilber Lourmat). Quantification of T73 signals is presented as histograms. Signal from DMSO treated cells is used as a reference and set as 1.
# The Guanabenz (Psi114) and Chloroguanabenz (Cl-Psi114) effects were so far tested in actively dividing yeast and 293T cells (Lunkes et al., 1998). Because neurons are the target of Huntington and the threat for accumulation of misfolded proteins being exacerbated in neuronal, post-mitotic cells, the inventors next tested the effect of Psi114 and Cl-Psi114 in NG10815 neuronal-like cell model of HD. NG108-15 cells were induced for expression of truncated huntingtin with 73Q repeats (T73) and differentiation.
# Drugs were added 12 h post-induction at the indicated doses. Protein extracts were collected 3 days after treatment and analyzed by immunoblots. […] The aggregates formed in these cells were below the detection level of the filter retardation assay precluding a robust quantitative analysis of the effects of the molecules on aggregate. […]
# NG108-15 cells = experiment: vimentin level in NG108-15 neuronal-like cell model of HD; format: cell-based; details: drugs added 12 h post-induction, extracts 3 days after treatment
# Procedure: as §2
# Drugs were added 12 h post-induction at the indicated doses. Protein extracts were collected 3 days after treatment and analyzed by immunoblots. […] The aggregates formed in these cells were below the detection level of the filter retardation assay precluding a robust quantitative analysis of the effects of the molecules on aggregate. However, because both aggregates and pathological symptoms are reversible with blockade of pathological protein expression, it is likely that aggregates in NG108-15 cells will diminish as a consequence of decreased accumulation of T73 by treating neurons with Psi114 or Cl-Psi114.
# yeast prions = format: cell-based; details: erg6Δ [PSI+] yeast strain, compound spotted on filter, halo of red [psi-] colonies
# [5] = tested on: N-terminal fragment of Huntingtin derivative with 48 glutamines (Htt48) in 293T cells; experiment: 293T cells transfected with Htt48, immunoblot of SDS lysates with Htt 2B4 antibody; format: cell-based; details: for activity on Htt48 accumulation: 293T cells, up to 100 μM
compound,measurement,setting,value
"N=C(N)N/N=C/c1c(Cl)ccc(Cl)c1Cl [Cl-Psi114, Chloroguanabenz]",effect on level of full length endogenous Huntingtin,[1],no effect
same,levels of aggregated Htt48,[2],decrease in a dose dependent manner
same,effect on levels of full length endogenous Huntingtin,[3],no effect
same,T73 level,[4],reduction of T73 in a dose dependant manner
same,vimentin level,NG108-15 cells,remains unaltered
same,activity in the yeast anti-prion screen,yeast prions,active; also recorded: more active in the yeast anti-prion screen that Psi114
Nc1c(/N=N/c2ccc(-c3ccc(/N=N/c4cc(S(=O)(=O)O)c5ccccc5c4N)cc3)cc2)cc(S(=O)(=O)O)c2ccccc12 [Congo red],activity in the Htt48 293T system,[5]; dose of 500 μM,barely detectable activity
"N=C(N)N [GuHCL, guanidine hydrochloride]",activity in the yeast anti-prion screen,yeast prions,positive control
"N=C(N)N/N=C/c1c(Cl)cccc1Cl [Psi114, Guanabenz]",levels of aggregated Htt48,[2],decrease in a dose dependent manner; also recorded: delayed
same,effect on levels of full length endogenous Huntingtin,[3],no effect
same,T73 level,[4],reduction of T73 in a dose dependant manner
same,vimentin level,NG108-15 cells,remains unaltered
same,activity in the yeast anti-prion screen,yeast prions,potent activity against yeast prions; also recorded: active in yeast cells
"Clc1cccc(Cl)c1N=C1NCCN1 [Psi211, Clonidine]",activity on Htt48 accumulation,[5],completely inactive
"c1ccc(C2CC2)c(OCC2=NCCN2)c1 [Psi214, Cirazoline]",toxicity,293T cells,some toxicity
"C1COC(NC(C2CC2)C2CC2)=N1 [Psi215, Rilmenidine]",toxicity,293T cells,some toxicity
"CCC1(C2=NCCN2)Cc2ccccc2O1 (centres unmarked) [Psi216, Efaroxan]",activity on Htt48 accumulation,[5],completely inactive

# — patent publication US7932422B2, “Use of chlorine guanabenz derivatives for treating polyglutamine expansion associated diseases” (priority 2006, dated 2011)
